Results published in the supplement of paper PMC11208160.

Assay: recombinant barcode read abundance after kanamycin selection (control-corrected) (log10(CPM+1)); higher = more efficient recombination; sequences stand for … in AGTGCAGAGAAAATCGGCCAGTTTTCTCTGCCTGCAGTCCGCATGCCGT…AGATTTATGCAGCGGACTGCCTTTCTCCCAAAGTGATAAACCGGACAGTATCATGGACCGGTTTTCCCGGTAATCCGTATTTGCAAGGTTGGTTTCACT; site = the 11-nt target
In short: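 Targets were screened in pooled form in E. coli against IS621 bridge RNA target-binding loops. Recombination efficiency is based on barcode counts at recombinant junctions in counts per million, averaged and corrected for the control. Numbers are shown as log10(CPM+1), with duplicate plates on chloramphenicol/ampicillin LB agar (control) or chloramphenicol/ampicillin/kanamycin with 0.1 mM IPTG.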
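Note: IS621 recombinase and bridge RNA in Escherichia coli cells.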

Sequence	recombinant barcode read abundance (log10)
TGCTGGGCTTGGGTTCTAACCTGTTGCTG (site CTTCATTCTAG)	0.225
TGCTGGGCTTGGGTTCTAACCTGTTGCTG (site TGCTGGGCTCA)	0.32
TGCTGTCCTTGGGTTCTAACCTGTTGCCT (site TGCTGTACTAG)	0.2
TGCTGTCCTTGGGTTCTAACCTGTTGCCT (site TGCTGTCCTAG)	0.111
TGCTGTCCTTGGGTTCTAACCTGTTGCCT (site TGCTGTGCTAG)	0.139
TGCTGTCCTTGGGTTCTAACCTGTTGCCT (site TGCTGTTCTAG)	0.0325
TGCTGTCCTTGGGTTCTAACCTGTTGCTT (site CAGACGACTTG)	0.127
TGCTGTCCTTGGGTTCTAACCTGTTGCTT (site TGCTGTCCTAA)	0.00473
TGGAACCCTTGGGTTCTAACCTGTTGCGG (site TGGAACCCTCC)	0.706
TGGAACCCTTGGGTTCTAACCTGTTGCGG (site TGGCACCCTCC)	0.0841
TGGAGAGCTTGGGTTCTAACCTGTTGCAG (site ACCTTGCCTTA)	0.0256
TGGAGAGCTTGGGTTCTAACCTGTTGCAG (site TGGAGAGCTCT)	2.3
TGGAGCCCTTGGGTTCTAACCTGTTGCAC (site TGGAGCCCTAT)	0.0355
TGGAGCCCTTGGGTTCTAACCTGTTGCAC (site TGGAGCCCTCT)	0.114
TGGAGCCCTTGGGTTCTAACCTGTTGCAC (site TGGAGCCCTGT)	0.253
TGGAGCCCTTGGGTTCTAACCTGTTGCAC (site TGGAGCCCTTT)	0.0674
TGGAGTCCTTGGGTTCTAACCTGTTGCTT (site TGGAGCCCTAA)	0.276
TGGAGTCCTTGGGTTCTAACCTGTTGCTT (site TGGAGTCCTAA)	0.605
TGGATCACTTGGGTTCTAACCTGTTGCCT (site TGGAACACTAG)	0.0491
TGGATCACTTGGGTTCTAACCTGTTGCCT (site TGGACCACTAG)	0.0457
TGGATCACTTGGGTTCTAACCTGTTGCCT (site TGGAGCACTAG)	0.0771
TGGATCACTTGGGTTCTAACCTGTTGCCT (site TGGATCACTAG)	1.09

Sequence	recombinant barcode read abundance (log10)
TGGCCCTCTTGGGTTCTAACCTGTTGCTC (site TGGCCCTCTAA)	0.0244
TGGCCCTCTTGGGTTCTAACCTGTTGCTC (site TGGCCCTCTCA)	0.304
TGGCCCTCTTGGGTTCTAACCTGTTGCTC (site TGGCCCTCTGA)	1.79
TGGCCCTCTTGGGTTCTAACCTGTTGCTC (site TGGCCCTCTTA)	0.0751
TGGCGTACTTGGGTTCTAACCTGTTGCCT (site TGGAGTACTAG)	0
TGGCGTACTTGGGTTCTAACCTGTTGCCT (site TGGCGTACTAG)	0.229
TGGCGTACTTGGGTTCTAACCTGTTGCCT (site TGGGGTACTAG)	0.0637
TGGCGTACTTGGGTTCTAACCTGTTGCCT (site TGGTGTACTAG)	0.149
TGGCTAGCTTGGGTTCTAACCTGTTGCCT (site TGACTAGCTAG)	0.052
TGGCTAGCTTGGGTTCTAACCTGTTGCCT (site TGCCTAGCTAG)	0.0442
TGGCTAGCTTGGGTTCTAACCTGTTGCCT (site TGGCTAGCTAG)	0.242
TGGCTAGCTTGGGTTCTAACCTGTTGCCT (site TGTCTAGCTAG)	0.0845
TGGGACCCTTGGGTTCTAACCTGTTGCAT (site TGCGACCCTAA)	0.261
TGGGACCCTTGGGTTCTAACCTGTTGCAT (site TGGGACCCTAT)	1.25
TGGGCGGCTTGGGTTCTAACCTGTTGCCT (site TAGGTGGCTAG)	0.133
TGGGCGGCTTGGGTTCTAACCTGTTGCCT (site TGGGCGGCTAG)	0.411
TGGGGCCCTTGGGTTCTAACCTGTTGCCG (site GCAATTACTAA)	0.09
TGGGGCCCTTGGGTTCTAACCTGTTGCCG (site TGGGGCCCTCG)	1.9
TGGGTGACTTGGGTTCTAACCTGTTGCCT (site GCCTGCCCTCA)	0.422
TGGGTGACTTGGGTTCTAACCTGTTGCCT (site TGGGTGACTAG)	0.057
TGGTAACCTTGGGTTCTAACCTGTTGCCT (site AGGTAACCTAG)	0.0194
TGGTAACCTTGGGTTCTAACCTGTTGCCT (site CGGTAACCTAG)	0.172

Sequence	recombinant barcode read abundance (log10)
TGGTAACCTTGGGTTCTAACCTGTTGCCT (site GGGTAACCTAG)	0.148
TGGTAACCTTGGGTTCTAACCTGTTGCCT (site TGGTAACCTAG)	0.571
TGGTATGCTTGGGTTCTAACCTGTTGCCT (site TGGTATACTAG)	0.5
TGGTATGCTTGGGTTCTAACCTGTTGCCT (site TGGTATCCTAG)	0.0685
TGGTATGCTTGGGTTCTAACCTGTTGCCT (site TGGTATGCTAG)	1.39
TGGTATGCTTGGGTTCTAACCTGTTGCCT (site TGGTATTCTAG)	0
TGGTCTACTTGGGTTCTAACCTGTTGCTT (site TGATCTACTAA)	0
TGGTCTACTTGGGTTCTAACCTGTTGCTT (site TGCTCTACTAA)	0.0743
TGGTCTACTTGGGTTCTAACCTGTTGCTT (site TGGTCTACTAA)	0.154
TGGTCTACTTGGGTTCTAACCTGTTGCTT (site TGTTCTACTAA)	0.0113
TGGTTCGCTTGGGTTCTAACCTGTTGCCT (site TGGTACGCTAG)	0.0339
TGGTTCGCTTGGGTTCTAACCTGTTGCCT (site TGGTCCGCTAG)	0.0365
TGGTTCGCTTGGGTTCTAACCTGTTGCCT (site TGGTGCGCTAG)	0.0185
TGGTTCGCTTGGGTTCTAACCTGTTGCCT (site TGGTTCGCTAG)	1.43
TGTAATACTTGGGTTCTAACCTGTTGCCT (site TGTAATACTAG)	0.0354
TGTAATACTTGGGTTCTAACCTGTTGCCT (site TGTAATCCTAG)	0.0997
TGTAATACTTGGGTTCTAACCTGTTGCCT (site TGTAATGCTAG)	0.147
TGTAATACTTGGGTTCTAACCTGTTGCCT (site TGTAATTCTAG)	0.121
TGTACCTCTTGGGTTCTAACCTGTTGCCT (site TGTACCTCTAG)	0.522
TGTACCTCTTGGGTTCTAACCTGTTGCCT (site TGTCCCTCTAG)	0.00782
TGTACCTCTTGGGTTCTAACCTGTTGCCT (site TGTGCCTCTAG)	0.0235
TGTACCTCTTGGGTTCTAACCTGTTGCCT (site TGTTCCTCTAG)	0.0524
